Reference: patent US20250320193A1, “OXOISOINDOLINYL SUBSTITUTED PIPERIDINEDIONE DERIVATIVE AND USE THEREOF” (GLUETACS THERAPEUTICS (SHANGHAI) CO., LTD., priority 2022, published 2025)
pIC50: −log10 of the molar value.

What was measured:
IKZF1 = IKZF1 (Homo sapiens (Human), UniProt Q13422+Q96SW2); assay: Western blot, substrate protein expression in hPBMC: IKZF1; assay type: cell-based; conditions: for substrate protein remaining % IKZF1: hPBMC, compound 500 nM, 24 hours, Western blot; for concentration at which IKZF1 protein was significantly degraded (Western blot, FIG. 1): hPBMCs
Sequence of IKZF1 (Q13422 whole entry): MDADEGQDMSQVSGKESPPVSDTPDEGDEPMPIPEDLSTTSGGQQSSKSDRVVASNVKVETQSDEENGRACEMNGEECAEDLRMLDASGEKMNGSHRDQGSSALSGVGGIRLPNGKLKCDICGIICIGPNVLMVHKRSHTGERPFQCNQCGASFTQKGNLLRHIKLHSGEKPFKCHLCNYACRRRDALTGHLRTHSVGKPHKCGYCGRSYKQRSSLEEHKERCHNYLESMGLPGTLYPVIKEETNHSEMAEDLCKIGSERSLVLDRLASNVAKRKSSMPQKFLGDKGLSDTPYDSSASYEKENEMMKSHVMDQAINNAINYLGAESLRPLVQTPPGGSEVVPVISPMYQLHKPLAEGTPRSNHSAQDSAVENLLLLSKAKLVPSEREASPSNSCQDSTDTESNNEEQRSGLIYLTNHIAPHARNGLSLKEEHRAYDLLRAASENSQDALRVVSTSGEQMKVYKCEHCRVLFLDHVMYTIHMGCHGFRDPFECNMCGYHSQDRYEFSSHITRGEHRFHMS
Sequence of IKZF1 (Q96SW2 whole entry): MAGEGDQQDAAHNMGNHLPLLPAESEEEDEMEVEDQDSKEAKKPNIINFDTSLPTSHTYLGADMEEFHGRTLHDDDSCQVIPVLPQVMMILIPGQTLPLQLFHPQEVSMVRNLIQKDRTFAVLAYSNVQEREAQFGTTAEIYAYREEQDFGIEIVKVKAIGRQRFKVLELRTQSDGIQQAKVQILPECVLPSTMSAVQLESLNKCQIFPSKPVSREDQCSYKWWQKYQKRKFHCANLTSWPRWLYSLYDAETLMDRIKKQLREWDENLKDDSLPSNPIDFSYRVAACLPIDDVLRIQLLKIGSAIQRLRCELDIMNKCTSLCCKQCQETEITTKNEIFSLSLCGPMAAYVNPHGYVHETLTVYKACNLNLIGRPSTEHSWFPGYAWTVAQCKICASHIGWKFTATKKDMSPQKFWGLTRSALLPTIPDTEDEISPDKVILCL
Sequence of IKZF1 (Q16531 whole entry partner): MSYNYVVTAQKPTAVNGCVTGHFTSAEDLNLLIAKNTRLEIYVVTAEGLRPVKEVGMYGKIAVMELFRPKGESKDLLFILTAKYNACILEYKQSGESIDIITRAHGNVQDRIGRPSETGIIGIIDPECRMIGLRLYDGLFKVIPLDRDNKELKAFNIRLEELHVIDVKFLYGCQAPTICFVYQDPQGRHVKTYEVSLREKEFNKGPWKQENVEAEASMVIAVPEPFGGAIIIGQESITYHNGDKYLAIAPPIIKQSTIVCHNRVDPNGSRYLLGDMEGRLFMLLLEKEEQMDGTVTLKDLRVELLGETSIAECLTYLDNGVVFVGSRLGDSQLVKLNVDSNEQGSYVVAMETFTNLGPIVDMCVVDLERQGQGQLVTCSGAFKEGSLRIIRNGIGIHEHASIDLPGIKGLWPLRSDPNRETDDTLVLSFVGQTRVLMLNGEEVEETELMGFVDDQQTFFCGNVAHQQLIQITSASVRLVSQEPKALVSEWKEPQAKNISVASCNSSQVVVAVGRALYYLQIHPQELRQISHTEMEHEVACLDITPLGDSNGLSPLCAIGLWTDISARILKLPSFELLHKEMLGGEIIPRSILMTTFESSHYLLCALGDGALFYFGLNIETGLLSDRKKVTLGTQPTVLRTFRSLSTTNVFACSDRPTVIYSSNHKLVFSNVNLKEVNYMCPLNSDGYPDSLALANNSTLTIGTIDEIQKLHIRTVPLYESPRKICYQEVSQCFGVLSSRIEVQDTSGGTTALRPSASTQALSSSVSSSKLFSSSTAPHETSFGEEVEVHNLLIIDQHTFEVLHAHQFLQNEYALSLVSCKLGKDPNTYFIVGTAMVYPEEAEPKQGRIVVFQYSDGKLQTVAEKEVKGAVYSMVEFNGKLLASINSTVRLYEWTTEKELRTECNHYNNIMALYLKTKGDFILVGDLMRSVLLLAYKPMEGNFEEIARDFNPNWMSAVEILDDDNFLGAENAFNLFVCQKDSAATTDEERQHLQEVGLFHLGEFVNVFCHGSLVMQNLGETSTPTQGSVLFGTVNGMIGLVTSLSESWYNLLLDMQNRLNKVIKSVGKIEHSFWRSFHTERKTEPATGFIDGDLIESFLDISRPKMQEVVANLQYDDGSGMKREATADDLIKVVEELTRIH
Outline: (§1)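 hPBMC, 1×10^6 cells/mL, 24 h compound exposure; RIPA lysis, BCA protein assay, SDS-PAGE, NC membrane immunoblot. Densitometry vs internal control → % protein remaining; degradation % = 100% − remaining; DC50 = conc. at 50% of DMSO band signal.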

IKZF3 = IKZF3 (Homo sapiens (Human), UniProt Q96SW2+Q9UKT9); assay: Western blot, substrate protein expression in hPBMC: IKZF3; assay type: cell-based; conditions: for substrate protein remaining % IKZF3: hPBMC, compound 500 nM, 24 hours, Western blot; for concentration at which IKZF3 protein was significantly degraded (Western blot, FIG. 1): hPBMCs
Sequence of IKZF3 (Q9UKT9 whole entry): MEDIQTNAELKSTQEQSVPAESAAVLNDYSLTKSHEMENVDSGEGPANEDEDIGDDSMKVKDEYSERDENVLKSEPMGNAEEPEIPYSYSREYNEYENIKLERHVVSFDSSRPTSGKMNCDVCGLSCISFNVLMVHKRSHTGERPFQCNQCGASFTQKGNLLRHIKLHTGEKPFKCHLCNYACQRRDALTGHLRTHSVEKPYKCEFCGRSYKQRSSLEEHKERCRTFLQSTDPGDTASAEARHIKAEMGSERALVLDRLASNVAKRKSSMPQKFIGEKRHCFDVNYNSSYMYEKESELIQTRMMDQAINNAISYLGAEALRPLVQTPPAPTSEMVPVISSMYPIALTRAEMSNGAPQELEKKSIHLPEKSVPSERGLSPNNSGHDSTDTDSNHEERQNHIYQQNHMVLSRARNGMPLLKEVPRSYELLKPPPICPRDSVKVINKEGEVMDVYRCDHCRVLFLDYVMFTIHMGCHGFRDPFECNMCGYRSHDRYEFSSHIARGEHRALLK
Sequence of IKZF3 (Q96SW2 whole entry): as the sequence (Q96SW2 whole entry) above
Sequence of IKZF3 (Q16531 whole entry partner): as the sequence (Q16531 whole entry partner) above
Outline: as §1

[1] = tested on: H146 cells (human small cell lung carcinoma cells); assay: Tumor cell proliferation inhibition, CCK-8; assay type: cell-based; conditions: NCI-H146, H146 cells, CCK-8, read-out: inhibitory activity (IC50, nM) H146
Description: (§2) The tumor cells used herein were cultured in a cell culture medium listed in table 2 at 37° C. in an incubator with 5% CO2. Prior to experimentation, all cells used were correctly identified by STR profiling, and tested negative for mycoplasma through routine screenings.
(§3) IC50 values of the compounds of the present disclosure (including the compounds in Table 1 and the Examples 1-305 compounds) were measured using the Meilun Cell Counting Kit-8 kit from Dalian Meilun Biotech Co., Ltd. Assay details are as follows: tumor cells were seeded in a 96-well plate at a density listed in Table 5. After 24 h, 100 μL of the inoculated cells were treated with 0.5 μL of the compounds of the present disclosure (including the compounds in Table 1 and the Examples 1-305 compounds) at 10 different successively decreasing concentrations (starting at the highest concentration of 10 μM; 5-fold serial dilutions). After the cells were treated with the compounds of the present disclosure for a period of time, the cell viability detection reagent was added to the culture medium for cell viability assessment according to the instructions provided with the CCK-8 kit. […] The growth inhibition of the compounds of the present disclosure on cells was plotted by Prism Graphpad software, and the IC50 values of the compounds of the present disclosure were calculated therefrom.

[2] = tested on: MM.1S cells (human multiple myeloma cells); assay: Tumor cell proliferation inhibition, CCK-8; assay type: cell-based; conditions: MM1.S, MM.1S cells, CCK-8, read-out: inhibitory activity (IC50, nM) MM.1S
Description: as §2, §3

[3] = tested on: MDA-MB-231 cells (human breast adenocarcinoma cells); assay: Tumor cell proliferation inhibition, CCK-8; assay type: cell-based; conditions: MDA-MB-231 cells, CCK-8, read-out: inhibitory activity (IC50, nM) MDA-MB-231
Description: as §2, §3

[4] = tested on: TMD8 cells (human diffuse large B-cell lymphoma cells); assay: Tumor cell proliferation inhibition, CCK-8; assay type: cell-based; conditions: TMD8 cells, CCK-8, read-out: inhibitory activity (IC50, nM) TMD8
Description: as §2, §3

[5] = target: human Cereblon WT GST-tagged protein (Homo sapiens (Human), UniProt Q96SW2); assay: CRBN-binding affinity, HTRF (CEREBLON BINDING kit, CISBIO); conditions: HTRF inhibitory activity
Sequence of human Cereblon WT GST-tagged protein (Q96SW2 whole entry): as the sequence (Q96SW2 whole entry) above
Outline: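 HTRF competition format: test compound displaces Thalidomide-Red from GST-tagged human Cereblon WT, detected with a Eu-labelled anti-GST antibody. Percent CRBN binding inhibition was derived from the 620 nm signal, normalized to solvent-control and protein-free blank wells.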

GSPT1 = GSPT1 (Homo sapiens (Human), UniProt P15170+Q96SW2); assay: Western blot, substrate protein expression in hPBMC: GSPT1; assay type: cell-based; conditions: for substrate protein remaining % GSPT1: hPBMC, compound 500 nM, 24 hours, Western blot; for concentration at which GSPT1 protein was clearly/significantly degraded (Western blot, FIG. 1): hPBMCs
Sequence of GSPT1 (P15170 whole entry): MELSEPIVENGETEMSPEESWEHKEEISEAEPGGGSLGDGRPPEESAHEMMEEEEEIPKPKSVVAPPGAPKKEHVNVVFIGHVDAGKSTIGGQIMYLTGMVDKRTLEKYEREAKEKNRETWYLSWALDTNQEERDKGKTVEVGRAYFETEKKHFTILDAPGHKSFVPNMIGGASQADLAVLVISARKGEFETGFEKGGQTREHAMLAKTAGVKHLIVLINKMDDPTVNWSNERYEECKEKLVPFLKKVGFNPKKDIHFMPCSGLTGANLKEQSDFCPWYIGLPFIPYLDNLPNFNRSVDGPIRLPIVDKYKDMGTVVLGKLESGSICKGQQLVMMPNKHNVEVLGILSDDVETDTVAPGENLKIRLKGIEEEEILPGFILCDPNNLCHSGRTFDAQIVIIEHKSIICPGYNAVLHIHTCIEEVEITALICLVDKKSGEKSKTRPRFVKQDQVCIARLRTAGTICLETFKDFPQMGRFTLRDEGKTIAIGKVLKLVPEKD
Sequence of GSPT1 (Q96SW2 whole entry): as the sequence (Q96SW2 whole entry) above
Sequence of GSPT1 (Q16531 whole entry partner): as the sequence (Q16531 whole entry partner) above
Outline: as §1

SMILES: O=C1CCC(N2Cc3cc(CN4C[C@@H]5C[C@H]4CN5C(c4ccccc4)c4ccccc4)c(F)cc3C2=O)C(=O)N1 (stereo partly drawn) [GT-05894, 3-(5-(((1S,4S)-5-benzhydryl-2,5-diazabicyclo[2.2.1]heptan-2-yl)methyl)-6-fluoro-1-oxoisoindolin-2-yl)piperidine-2,6-dione]
- substrate protein remaining % IKZF1 (IKZF1): A (A represents 0% ≤ substrate protein remaining % ≤ 50%)
- substrate protein remaining % IKZF3 (IKZF3): B (B represents substrate protein remaining % > 50%)
- IC50 [1]: 10 to 50 nM
- IC50 [2]: 1 to 10 nM
- IC50 [3]: 50 to 100 nM
- IC50 [4]: 500 to 1000 nM
- pIC50 [5]: > 6.30
- substrate protein remaining % GSPT1 (GSPT1): A (A represents 0% ≤ substrate protein remaining % ≤ 50%)

SMILES: O=C1CCC(N2Cc3cc(CN4CCN(C(c5ccccc5F)c5ccccc5F)CC4)cc(F)c3C2=O)C(=O)N1 (centres unmarked) [GT-06087, 3-(5-((4-(bis(2-fluorophenyl)methyl)piperazin-1-yl)methyl)-7-fluoro-1-oxoisoindolin-2-yl)piperidine-2,6-dione]
- substrate protein remaining % IKZF1 (IKZF1): B (B represents substrate protein remaining % > 50%)
- substrate protein remaining % IKZF3 (IKZF3): B (B represents substrate protein remaining % > 50%)
- IC50 [1]: 50 to 100 nM
- IC50 [2]: 10 to 50 nM
- IC50 [3]: 100 to 500 nM
- IC50 [4]: 100 to 500 nM
- pIC50 [5]: > 6.30
- substrate protein remaining % GSPT1 (GSPT1): A (A represents 0% ≤ substrate protein remaining % ≤ 50%)

SMILES: O=C1CCC(N2Cc3cc(CN4CCC(N(c5ccccc5)c5ccccn5)CC4)ccc3C2=O)C(=O)N1 (centres unmarked) [GT-04525, 3-(1-oxo-5-((4-(phenyl(pyridin-2-yl)amino)piperidin-1-yl)methyl)isoindolin-2-yl)piperidine-2,6-dione]
- substrate protein remaining % IKZF1 (IKZF1): A (A represents 0% ≤ substrate protein remaining % ≤ 50%)
- concentration at which IKZF1 protein was significantly degraded (Western blot, FIG. 1) (IKZF1): below 50 nM
- substrate protein remaining % IKZF3 (IKZF3): A (A represents 0% ≤ substrate protein remaining % ≤ 50%)
- concentration at which IKZF3 protein was significantly degraded (Western blot, FIG. 1) (IKZF3): below 50 nM
- IC50 [1]: 1 to 10 nM
- IC50 [2]: < 1 nM
- IC50 [3]: 1 to 10 nM
- IC50 [4]: 1 to 10 nM
- pIC50 [5]: > 6.30
- substrate protein remaining % GSPT1 (GSPT1): A (A represents 0% ≤ substrate protein remaining % ≤ 50%)
- concentration at which GSPT1 protein was clearly/significantly degraded (Western blot, FIG. 1) (GSPT1): below 50 nM

SMILES: O=C1CCC(N2Cc3cc(CN4CCN(C5c6ccccc6-c6ccccc65)CC4)ccc3C2=O)C(=O)N1 (centres unmarked) [GT-05907, 3-(5-((4-(9H-fluoren-9-yl)piperazin-1-yl)methyl)-1-oxoisoindolin-2-yl)piperidine-2,6-dione]
- substrate protein remaining % IKZF1 (IKZF1): A (A represents 0% ≤ substrate protein remaining % ≤ 50%)
- substrate protein remaining % IKZF3 (IKZF3): A (A represents 0% ≤ substrate protein remaining % ≤ 50%)
- IC50 [1]: 10 to 50 nM
- IC50 [2]: 1 to 10 nM
- IC50 [3]: 10 to 50 nM
- IC50 [4]: 10 to 50 nM
- pIC50 [5]: > 6.30
- substrate protein remaining % GSPT1 (GSPT1): A (A represents 0% ≤ substrate protein remaining % ≤ 50%)

SMILES: O=C1CCC(N2Cc3cc(CN4CCC(N(c5ccccc5)c5ccccn5)CC4)c(F)cc3C2=O)C(=O)N1 (centres unmarked) [GT-05857, 3-(6-fluoro-1-oxo-5-((4-(phenyl(pyridin-2-yl)amino)piperidin-1-yl)methyl)isoindolin-2-yl)piperidine-2,6-dione]
- substrate protein remaining % IKZF1 (IKZF1): A (A represents 0% ≤ substrate protein remaining % ≤ 50%)
- concentration at which IKZF1 protein was significantly degraded (Western blot, FIG. 1) (IKZF1): below 50 nM
- substrate protein remaining % IKZF3 (IKZF3): A (A represents 0% ≤ substrate protein remaining % ≤ 50%)
- concentration at which IKZF3 protein was significantly degraded (Western blot, FIG. 1) (IKZF3): below 50 nM
- IC50 [1]: 1 to 10 nM
- IC50 [2]: < 1 nM
- IC50 [3]: 1 to 10 nM
- IC50 [4]: 1 to 10 nM
- pIC50 [5]: > 6.30
- substrate protein remaining % GSPT1 (GSPT1): A (A represents 0% ≤ substrate protein remaining % ≤ 50%)
- concentration at which GSPT1 protein was clearly/significantly degraded (Western blot, FIG. 1) (GSPT1): below 50 nM

SMILES: O=C1CCC(N2Cc3cc(N4C5CCC4CN(C(c4ccccc4)c4ccccc4)C5)ccc3C2=O)C(=O)N1 (centres unmarked) [GT-05866, 3-(5-(3-benzhydryl-3,8-diazabicyclo[3.2.1]octan-8-yl)-1-oxoisoindolin-2-yl)piperidine-2,6-dione]
- substrate protein remaining % IKZF1 (IKZF1): B (B represents substrate protein remaining % > 50%)
- substrate protein remaining % IKZF3 (IKZF3): A (A represents 0% ≤ substrate protein remaining % ≤ 50%)
- IC50 [1]: 10 to 50 nM
- IC50 [2]: 1 to 10 nM
- IC50 [3]: 10 to 50 nM
- IC50 [4]: 50 to 100 nM
- pIC50 [5]: 6.00 to 6.30
- substrate protein remaining % GSPT1 (GSPT1): A (A represents 0% ≤ substrate protein remaining % ≤ 50%)

SMILES: O=C1CCC(N2Cc3c(ccc(CN4CCC(N(c5ccccc5)c5ccccn5)CC4)c3F)C2=O)C(=O)N1 (centres unmarked) [GT-05856, 3-(4-fluoro-1-oxo-5-((4-(phenyl(pyridin-2-yl)amino)piperidin-1-yl)methyl)isoindolin-2-yl)piperidine-2,6-dione]
- substrate protein remaining % IKZF1 (IKZF1): A (A represents 0% ≤ substrate protein remaining % ≤ 50%)
- concentration at which IKZF1 protein was significantly degraded (Western blot, FIG. 1) (IKZF1): below 50 nM
- substrate protein remaining % IKZF3 (IKZF3): A (A represents 0% ≤ substrate protein remaining % ≤ 50%)
- concentration at which IKZF3 protein was significantly degraded (Western blot, FIG. 1) (IKZF3): below 50 nM
- IC50 [1]: 1 to 10 nM
- IC50 [2]: < 1 nM
- IC50 [3]: 1 to 10 nM
- IC50 [4]: 1 to 10 nM
- pIC50 [5]: > 6.30
- substrate protein remaining % GSPT1 (GSPT1): A (A represents 0% ≤ substrate protein remaining % ≤ 50%)
- concentration at which GSPT1 protein was clearly/significantly degraded (Western blot, FIG. 1) (GSPT1): below 50 nM

SMILES: O=C1CCC(N2Cc3c(ccc(CN4CCN(C(c5ccccc5F)c5ccccc5F)CC4)c3F)C2=O)C(=O)N1 (centres unmarked) [GT-06085, 3-(5-((4-(bis(2-fluorophenyl)methyl)piperazin-1-yl)methyl)-4-fluoro-1-oxoisoindolin-2-yl)piperidine-2,6-dione]
- substrate protein remaining % IKZF1 (IKZF1): A (A represents 0% ≤ substrate protein remaining % ≤ 50%)
- substrate protein remaining % IKZF3 (IKZF3): A (A represents 0% ≤ substrate protein remaining % ≤ 50%)
- IC50 [1]: 10 to 50 nM
- IC50 [2]: 1 to 10 nM
- IC50 [3]: 10 to 50 nM
- IC50 [4]: 10 to 50 nM
- pIC50 [5]: 6.00 to 6.30
- substrate protein remaining % GSPT1 (GSPT1): A (A represents 0% ≤ substrate protein remaining % ≤ 50%)

SMILES: O=C1CCC(N2Cc3cc(CN4CCN(C(c5ccccc5F)c5ccccc5F)CC4)c(F)cc3C2=O)C(=O)N1 (centres unmarked) [GT-06086, 3-(5-((4-(bis(2-fluorophenyl)methyl)piperazin-1-yl)methyl)-6-fluoro-1-oxoisoindolin-2-yl)piperidine-2,6-dione]
- substrate protein remaining % IKZF1 (IKZF1): A (A represents 0% ≤ substrate protein remaining % ≤ 50%)
- substrate protein remaining % IKZF3 (IKZF3): A (A represents 0% ≤ substrate protein remaining % ≤ 50%)
- IC50 [1]: 10 to 50 nM
- IC50 [2]: 1 to 10 nM
- IC50 [3]: 10 to 50 nM
- IC50 [4]: 10 to 50 nM
- pIC50 [5]: 6.00 to 6.30
- substrate protein remaining % GSPT1 (GSPT1): A (A represents 0% ≤ substrate protein remaining % ≤ 50%)

SMILES: O=C1CCC(N2Cc3cc(CN4CCN(C(c5ccccc5F)c5ccccc5F)CC4)ccc3C2=O)C(=O)N1 (centres unmarked) [GT-06084, 3-(5-((4-(bis(2-fluorophenyl)methyl)piperazin-1-yl)methyl)-1-oxoisoindolin-2-yl)piperidine-2,6-dione]
- substrate protein remaining % IKZF1 (IKZF1): A (A represents 0% ≤ substrate protein remaining % ≤ 50%)
- substrate protein remaining % IKZF3 (IKZF3): A (A represents 0% ≤ substrate protein remaining % ≤ 50%)
- IC50 [1]: 10 to 50 nM
- IC50 [2]: 1 to 10 nM
- IC50 [3]: 10 to 50 nM
- IC50 [4]: 10 to 50 nM
- pIC50 [5]: > 6.30
- substrate protein remaining % GSPT1 (GSPT1): A (A represents 0% ≤ substrate protein remaining % ≤ 50%)
